PubChem BioAssay (NCI)
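Each compound was tested at five concentrations against cells in 96-well plates for 48 hours. The concentration for full growth arrest is given as TGI.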

Experiments:
Experiment in all cases: DTP human tumour cell line panel, 48 h
[1] = system: SNB-75 CNS
[2] = system: BT-549 breast
[3] = system: MCF7 breast
[4] = system: NCI-H460 lung
[5] = system: SK-MEL-2 melanoma
[6] = system: NCI-H23 lung
[7] = system: SK-OV-3 ovarian
[8] = system: DU-145 prostate
[9] = system: OVCAR-5 ovarian
[10] = system: SK-MEL-28 melanoma
[11] = system: T-47D breast
[12] = system: ACHN renal
[13] = system: SF-539 CNS
[14] = system: NCI/ADR-RES ovarian
[15] = system: HOP-62 NSCLC
[16] = system: IGROV1 ovarian
[17] = system: HCT-15 colon
[18] = system: HS 578T breast
[19] = system: CAKI-1 renal
[20] = system: HOP-92 NSCLC
[21] = system: SF-268 CNS
[22] = system: UACC-257 melanoma
[23] = system: OVCAR-3 ovarian
[24] = system: HCC-2998 colon
[25] = system: A498 renal
[26] = system: UACC-62 melanoma
[27] = system: UO-31 renal
[28] = system: HL-60(TB) leukemia
[29] = system: SK-MEL-5 melanoma
[30] = system: U251 CNS
[31] = system: MDA-MB-435
[32] = system: RXF 393 renal
[33] = system: OVCAR-4 ovarian
[34] = system: SN12C renal
[35] = system: PC-3 prostate
[36] = system: M14 melanoma
[37] = system: SF-295 CNS
[38] = system: OVCAR-8 ovarian
[39] = system: MDA-N
[40] = system: 786-0 renal
[41] = system: TK-10 renal
[42] = system: A549 NSCLC
[43] = system: HT29 colon
[44] = system: RPMI-8226 leukemia
[45] = system: MALME-3M melanoma
[46] = system: SNB-19 CNS
[47] = system: CCRF-CEM leukemia
[48] = system: HCT-116 colon
[49] = system: COLO 205 colon
[50] = system: KM12 colon
[51] = system: LOX IMVI melanoma
[52] = system: NCI-H522 lung
[53] = system: K-562 leukemia
[54] = system: EKVX NSCLC
[55] = system: SW-620 colon
[56] = system: MDA-MB-231 breast
[57] = system: NCI-H226 lung
[58] = system: MOLT-4 leukemia

CC1CC2(OC2C)C(=O)OC2CCN(C)C/C=C(/COC(=O)C1(C)O)C2=O (stereo not drawn)
TGI [1]: > 100 µM | TGI [2]: > 100 µM | TGI [3]: > 100 µM | TGI [4]: > 100 µM | TGI [5]: > 100 µM | TGI [6]: > 100 µM | TGI [7]: > 100 µM | TGI [8]: > 100 µM | TGI [9]: > 100 µM | TGI [10]: > 100 µM | TGI [11]: > 100 µM | TGI [12]: > 100 µM | TGI [13]: > 100 µM | TGI [14]: > 100 µM | TGI [15]: > 100 µM | TGI [16]: > 100 µM | TGI [17]: > 100 µM | TGI [18]: > 100 µM | TGI [19]: > 100 µM | TGI [20]: > 100 µM | TGI [21]: > 100 µM | TGI [22]: > 100 µM | TGI [23]: > 100 µM | TGI [24]: > 100 µM | TGI [25]: > 100 µM | TGI [26]: > 100 µM | TGI [27]: > 100 µM | TGI [28]: > 100 µM | TGI [29]: > 100 µM | TGI [30]: > 100 µM | TGI [31]: > 100 µM | TGI [32]: > 100 µM | TGI [33]: > 100 µM | TGI [34]: > 100 µM | TGI [35]: > 100 µM | TGI [36]: > 100 µM | TGI [37]: > 100 µM | TGI [38]: > 100 µM | TGI [39]: > 100 µM | TGI [40]: > 100 µM | TGI [41]: > 100 µM | TGI [42]: > 100 µM | TGI [43]: > 100 µM | TGI [44]: > 100 µM | TGI [45]: > 100 µM | TGI [46]: > 100 µM | TGI [47]: > 100 µM | TGI [48]: > 100 µM | TGI [49]: > 100 µM | TGI [50]: > 100 µM | TGI [51]: > 100 µM | TGI [52]: > 100 µM | TGI [53]: > 100 µM | TGI [54]: > 100 µM | TGI [55]: > 100 µM | TGI [56]: > 100 µM

COc1cc(C(=O)N(C)N(C)C)cc(OC)c1OC
TGI [1]: > 10 µM | TGI [2]: > 10 µM | TGI [3]: > 10 µM | TGI [4]: > 10 µM | TGI [5]: > 10 µM | TGI [6]: > 10 µM | TGI [7]: > 10 µM | TGI [8]: > 10 µM | TGI [57]: > 10 µM | TGI [9]: > 10 µM | TGI [10]: > 10 µM | TGI [11]: > 10 µM | TGI [12]: > 10 µM | TGI [13]: > 10 µM | TGI [14]: > 10 µM | TGI [15]: > 10 µM | TGI [16]: > 10 µM | TGI [17]: > 10 µM | TGI [18]: > 10 µM | TGI [19]: > 10 µM | TGI [20]: > 10 µM | TGI [21]: > 10 µM | TGI [22]: > 10 µM | TGI [23]: > 10 µM | TGI [24]: > 10 µM | TGI [25]: > 10 µM | TGI [26]: > 10 µM | TGI [27]: > 10 µM | TGI [28]: > 10 µM | TGI [29]: > 10 µM | TGI [30]: > 10 µM | TGI [31]: > 10 µM | TGI [32]: > 10 µM | TGI [33]: > 10 µM | TGI [34]: > 10 µM | TGI [58]: > 10 µM | TGI [35]: > 10 µM | TGI [36]: > 10 µM | TGI [37]: > 10 µM | TGI [38]: > 10 µM | TGI [39]: > 10 µM | TGI [40]: > 10 µM | TGI [41]: > 10 µM | TGI [42]: > 10 µM | TGI [43]: > 10 µM | TGI [44]: > 10 µM | TGI [45]: > 10 µM | TGI [46]: > 10 µM | TGI [47]: > 10 µM | TGI [48]: > 10 µM | TGI [49]: > 10 µM | TGI [50]: > 10 µM | TGI [51]: > 10 µM | TGI [52]: > 10 µM | TGI [53]: > 10 µM | TGI [54]: > 10 µM | TGI [55]: > 10 µM | TGI [56]: > 10 µM

CCSc1n/c(=C\c2ccc(N(C)C)cc2)c2nnnn12
TGI [1]: > 100 µM | TGI [2]: > 100 µM | TGI [3]: > 100 µM | TGI [4]: > 100 µM | TGI [5]: > 100 µM | TGI [6]: > 100 µM | TGI [7]: > 100 µM | TGI [8]: > 100 µM | TGI [57]: > 100 µM | TGI [9]: > 100 µM | TGI [10]: > 100 µM | TGI [11]: > 100 µM | TGI [12]: > 100 µM | TGI [14]: > 100 µM | TGI [15]: > 100 µM | TGI [16]: > 100 µM | TGI [17]: > 100 µM | TGI [18]: > 100 µM | TGI [19]: > 100 µM | TGI [20]: > 100 µM | TGI [21]: > 100 µM | TGI [22]: > 100 µM | TGI [23]: > 100 µM | TGI [24]: > 100 µM | TGI [25]: > 100 µM | TGI [26]: > 100 µM | TGI [28]: > 100 µM | TGI [29]: > 100 µM | TGI [30]: > 100 µM | TGI [31]: > 100 µM | TGI [32]: > 100 µM | TGI [33]: > 100 µM | TGI [34]: > 100 µM | TGI [58]: > 100 µM | TGI [35]: > 100 µM | TGI [36]: > 100 µM | TGI [37]: > 100 µM | TGI [38]: > 100 µM | TGI [39]: > 100 µM | TGI [40]: > 100 µM | TGI [41]: > 100 µM | TGI [42]: > 100 µM | TGI [43]: > 100 µM | TGI [44]: > 100 µM | TGI [45]: > 100 µM | TGI [46]: > 100 µM | TGI [47]: > 100 µM | TGI [48]: > 100 µM | TGI [49]: > 100 µM | TGI [50]: > 100 µM | TGI [52]: > 100 µM | TGI [54]: > 100 µM | TGI [55]: > 100 µM | TGI [56]: > 100 µM
